From US9808470B2, “Estrogenic components for use in the treatment of neurological disorders” (UNIVERSITE DE LIEGE, priority 2012, dated 2017) come the findings set out here.

One series relates to doublecortin (DCX). In words: Ex.8 therapeutic HIE rat model: doublecortin staining. Format: in vivo. Here is the method: To study the therapeutic effect of estetrol, newborn rat pups were assigned to one of the following 14 groups at postnatal day 7 (FIG. 23(B)): Sham group (n=12), Vehicle (n=15), 5 mg/kg/day E4 (n=11), 10 mg/kg/day E4 (n=11), 5 mg/kg/day E4+1.6 mg/kg/day PROG (n=11), 10 mg/kg/day E4+1.6 mg/kg/day PROG (n=11), 5 mg/kg/day E4+16 mg/kg/day PROG (n=11), 10 mg/kg/day E4+16 mg/kg/day PROG (n=13), 5 mg/kg/day E4+136 ng//kg/day E2 (n=11), 10 mg/kg/day E4+136 ng/kg/day E2 (n=11), 5 mg/kg/day E4+1.6 mg/kg/day PROG+136 ng/kg/day E2 (n=12), 10 mg/kg/day E4+1.6 mg/kg/day PROG+136 ng/kg/day E2 (n=11), 5 mg/kg/day E4+16 mg/kg/day PROG+136 ng/kg/day E2 (n=11), 10 mg/kg/day E4+16 mg/kg/day PROG+136 ng/kg/day (n=12) groups. […] After surgery, the pups were returned to their dams and allowed to recover for 1 hour. The pups were then placed in a humidified hypoxic in vivo cabinet (CoyLab). […]
The sections were heated in 10 mmol/L citrate buffer (pH 6.0) at 100° C. for 10 minutes. […] Samples were analyzed with the aid of a microscope (Olympus Vanox AHBT3, Olympus), and the ImageJ software 15 (NIH). The percentage of positively stained cells was quantified as a sum of positively stained either DCX or VEGF cells divided by the total number of DAPI positive cells expressed in percentage.

The nature of series [1]: Ex.2 neonatal HIE rat model, pre-treatment: body weight. Format: in vivo. Here is the method: Sprague-Dawley pregnant rats were obtained from Janvier (France). After delivery newborn rat pups were housed with their dams and reared normally at room temperature (25° C.) under a 12-hour light-dark cycle. All experimental protocols were approved by the University of Liege Ethical Committee. All efforts were made to minimize animal suffering.
Estetrol (E4) was dissolved in saline solution at different concentrations and an equal volume (5 μl/g) of the solution was injected intraperitoneally into the pups from the E4 group(s). Rat pups from the Vehicle group were intraperitoneally injected a saline solution. Rat pups from the Sham group were not injected at all.
Ischemia was produced by surgery encompassing left common carotid artery double ligation and cut; hypoxia was produced by the inhalation of 11%-8% of oxygen balanced by nitrogen at decreased concentration of oxygen for 20 minutes, followed by inhalation of 8% oxygen and 92% nitrogen at constant concentration for 35 minutes.
After delivery, newborn rat pups were assigned to one of the following 4 groups: Sham group, Vehicle group, E4 5 mg/kg/per day group and E4 50 mg/kg/per day group. From day 4 to day 7 inclusive, rat pups were injected intraperitoneally either vehicle (Vehicle group) or E4 (5 mg/kg or 50 mg/kg in accordance to the group assignment) or not injected at all (Sham group). At day 7, 30 minutes after last injection, animals from Vehicle and E4 (5 mg/kg or 50 mg/kg) groups passed through surgery encompassing left common carotid artery double ligation and cut, followed by hypoxia produced by the inhalation of 11%-8% of oxygen balanced by nitrogen at decreased concentration for 20 minutes, followed by inhalation of 8% oxygen and 92% nitrogen at constant concentration for 35 minutes. The Sham group went through similar procedures without left common carotid artery ligation and hypoxia. All the manipulations were performed at 37° C. Rat pups recovered with their dams until being sacrificed at postnatal day 14. […]

Molecules are shown by their SMILES.

`C[C@]12CC[C@@H]3c4ccc(O)cc4CC[C@H]3[C@@H]1[C@@H](O)[C@@H](O)[C@@H]2O` [E4, 1,3,5(10)-estratrien-3,15α,16α,17β-tetrol]: the “percentage of DCX positively stained cells” value in the series with doublecortin (DCX) (5 mg/kg/day E4, CA2/CA3) came out at 15.09±12.17%. In the series on doublecortin (DCX) (5 mg/kg/day E4, hippocampus), the “DCX positively stained cell percentage” value came out at 59.73±3.44%. Besides, the body weight result in series [1] (E4 5 mg/kg ip day 4-7 before HI, day 8, vs Sham) is “sham operated group had significantly higher body weight”; in series [1] (E4 5 mg/kg ip day 4-7 before HI, post-operative days 13 and 14, vs vehicle), “significantly higher body weight than vehicle treated animals”; in series [1] (E4 50 mg/kg ip day 4-7 before HI, day 10, vs Sham), “sham operated group had significantly higher body weight”.
